Drawing on PubChem BioAssay AID270 (DTP/NCI, 2004), this text covers T/C for 18 molecules.

The subject of the assay is BDF1 mice, s.c. Lewis lung carcinoma, T/C %. Briefly: NCI In Vivo Anticancer Drug Screen. Data for tumor model Lewis Lung Carcinoma (subcutaneous) in B6D2F1 (BDF1) mice. The procedure: The antitumor activity of compounds was measured in mice bearing transplantable tumors. Survival or tumor size were measured and the results are expressed as the measurement made in the treated group (T) divided by the measurement made in the vehicle treated control group (C). The tumor model used in this assay is Lewis Lung Carcinoma (subcutaneous) in B6D2F1 (BDF1) mice

Where [1] appears, read: endpoint: median survival time, dose: 6.25 mg/kg/injection, schedule: Q01DX009 (ip), vehicle: Klucel (hydroxypropylcellulose) (HPC), higher = longer survival.
Setting [2] is: endpoint: median survival time, dose: 12.5 mg/kg/injection, schedule: Q01DX009 (ip), vehicle: Klucel (hydroxypropylcellulose) (HPC), higher = longer survival.
The mark [3] stands for this setting: endpoint: median survival time, dose: 25.0 mg/kg/injection, schedule: Q01DX009 (ip), vehicle: Klucel (hydroxypropylcellulose) (HPC), higher = longer survival.
[4] abbreviates: endpoint: mean tumor weight, dose: 0.25 mg/kg/injection, schedule: Q01DX011 (ip), vehicle: water, higher = larger tumour.
Where [5] appears, read: endpoint: mean tumor weight, dose: 100.0 mg/kg/injection, schedule: Q01DX011 (ip), vehicle: saline, higher = larger tumour.
Setting [6] is: endpoint: mean tumor weight, dose: 125.0 mg/kg/injection, schedule: Q01DX011 (ip), vehicle: saline, higher = larger tumour.
[7] abbreviates: endpoint: mean tumor weight, dose: 250.0 mg/kg/injection, schedule: Q01DX011 (ip), vehicle: saline, higher = larger tumour.
Setting [8] is: endpoint: mean tumor weight, dose: 300.0 mg/kg/injection, schedule: Q01DX011 (ip), vehicle: other, higher = larger tumour.

Where “and” joins values, the source holds several entries; their conditions need not be identical. Equal entries are not always repeated. Results filed as inconclusive are left out.

Turning to `C=C1C(=O)OC2C1CCC(C)C1CCC(=O)OC12C` (configuration not stated), the T/C reads like this: (endpoint: median survival time, dose: 1.6 mg/kg/injection, schedule: Q01DX009 (ip), vehicle: Klucel (hydroxypropylcellulose) (HPC), higher = longer survival) 95 % of control; (endpoint: median survival time, dose: 3.12 mg/kg/injection, schedule: Q01DX009 (ip), vehicle: Klucel (hydroxypropylcellulose) (HPC), higher = longer survival) 102 % of control; (endpoint: median survival time, dose: 3.13 mg/kg/injection, schedule: Q01DX009 (ip), vehicle: Klucel (hydroxypropylcellulose) (HPC), higher = longer survival) 104 % of control; under setting [1], 102 % of control; under setting [2], 106 % of control; under setting [3], 92 % of control.

With `COC1=C(N)C(=O)c2nc(-c3nc(C(=O)O)c(C)c(-c4ccc(OC)c(OC)c4O)c3N)ccc2C1=O`, the T/C was 68 % of control (endpoint: mean tumor weight, dose: 0.06 mg/kg/injection, schedule: Q01DX011 (ip), vehicle: water, higher = larger tumour); 56 % of control (endpoint: mean tumor weight, dose: 0.12 mg/kg/injection, schedule: Q01DX011 (ip), vehicle: water, higher = larger tumour); 42 % of control under setting [4]; 98 % of control (endpoint: median survival time, dose: 62.5 micrograms/kg/injection, schedule: Q01DX009 (ip), vehicle: saline, higher = longer survival); 112 % of control (endpoint: median survival time, dose: 125.0 micrograms/kg/injection, schedule: Q01DX009 (ip), vehicle: saline, higher = longer survival); 98 % of control (endpoint: median survival time, dose: 250.0 micrograms/kg/injection, schedule: Q01DX009 (ip), vehicle: saline, higher = longer survival).

For the molecule `CCc1ccccc1N1CCN(C(=O)c2cc(OC)c(OC)c(OC)c2)CC1`, the T/C (endpoint: mean tumor weight, dose: 25.0 mg/kg/injection, schedule: Q01DX011 (ip), vehicle: carboxymethylcellulose (CMC), higher = larger tumour) was 46 % of control and 48 % of control.

On to `CCN1C=C/C(=C\C=C/c2cc[n+](CC)c3ccccc23)c2ccccc21`, for which the T/C is, setting by setting: (endpoint: median survival time, dose: 6.0 micrograms/kg/injection, schedule: Q01DX009 (ip), vehicle: saline, higher = longer survival) 114 % of control; (endpoint: median survival time, dose: 6.2 micrograms/kg/injection, schedule: Q01DX009 (ip), vehicle: saline with Tween-80, higher = longer survival) 104 % of control; (endpoint: median survival time, dose: 12.0 micrograms/kg/injection, schedule: Q01DX009 (ip), vehicle: saline, higher = longer survival) 209 % of control; (endpoint: median survival time, dose: 12.5 micrograms/kg/injection, schedule: Q01DX009 (ip), vehicle: saline with Tween-80, higher = longer survival) 98 % of control; (endpoint: median survival time, dose: 25.0 micrograms/kg/injection, schedule: Q01DX009 (ip), vehicle: saline with Tween-80, higher = longer survival) 101 % of control; (endpoint: median survival time, dose: 25.0 micrograms/kg/injection, schedule: Q01DX009 (ip), vehicle: saline, higher = longer survival) 208 % of control. Besides, the T/C (endpoint: median survival time, dose: 50.0 micrograms/kg/injection, schedule: Q01DX009 (ip), vehicle: saline with Tween-80, higher = longer survival) is 98 % of control; the T/C (endpoint: median survival time, dose: 50.0 micrograms/kg/injection, schedule: Q01DX009 (ip), vehicle: saline, higher = longer survival) is 209 % of control; the T/C (endpoint: median survival time, dose: 100.0 micrograms/kg/injection, schedule: Q01DX009 (ip), vehicle: saline with Tween-80, higher = longer survival) was 104 % of control.

As to `CC1CN1P(=S)(N1CC1C)N1CC1C` (configuration not stated), the T/C by setting is: (endpoint: mean tumor weight, dose: 9.0 mg/kg/injection, schedule: Q01DX011 (ip), vehicle: carboxymethylcellulose (CMC), higher = larger tumour) 87 % of control; (endpoint: mean tumor weight, dose: 17.5 mg/kg/injection, schedule: Q01DX011 (ip), vehicle: carboxymethylcellulose (CMC), higher = larger tumour) 72 % of control; (endpoint: mean tumor weight, dose: 53.0 mg/kg/injection, schedule: Q01DX011 (ip), vehicle: carboxymethylcellulose (CMC), higher = larger tumour) 23 % of control.

Turning to `CCOC(N)=O`, the T/C (endpoint: mean tumor weight, dose: 60.0 mg/kg/injection, schedule: Q01DX011 (ip), vehicle: saline, higher = larger tumour) was 119 % of control; the T/C under setting [5] is 90 % of control; the T/C under setting [6] was 123 % of control; the T/C (endpoint: mean tumor weight, dose: 200.0 mg/kg/injection, schedule: Q01DX011 (ip), vehicle: saline, higher = larger tumour) was 60 % of control and 67 % of control and 69 % of control; the T/C under setting [7] was 62 % of control; the T/C (endpoint: mean tumor weight, dose: 400.0 mg/kg/injection, schedule: Q01DX011 (ip), vehicle: saline, higher = larger tumour) is 33 % of control and 41 % of control and 56 % of control. In addition, the T/C (endpoint: mean tumor weight, dose: 600.0 mg/kg/injection, schedule: Q01DX011 (ip), vehicle: saline, higher = larger tumour) is 38 % of control.

As to `OC(COc1cccc2ccccc12)CN(CCCl)CCCl` (configuration not stated), the T/C was 94 % of control and 104 % of control (endpoint: median survival time, dose: 1.25 mg/kg/injection, schedule: Q01DX009 (ip), vehicle: Klucel (hydroxypropylcellulose) (HPC), higher = longer survival); 100 % of control and 101 % of control (endpoint: median survival time, dose: 2.5 mg/kg/injection, schedule: Q01DX009 (ip), vehicle: Klucel (hydroxypropylcellulose) (HPC), higher = longer survival); 103 % of control (endpoint: median survival time, dose: 5.0 mg/kg/injection, schedule: Q01DX009 (ip), vehicle: Klucel (hydroxypropylcellulose) (HPC), higher = longer survival).

On to `Nc1nc2nc[nH]c2c(=O)[nH]1`, for which the T/C reads like this: (endpoint: mean tumor weight, dose: 6.25 mg/kg/injection, schedule: Q01DX010 (ip), vehicle: saline, higher = larger tumour) 73 % of control; (endpoint: mean tumor weight, dose: 12.5 mg/kg/injection, schedule: Q01DX010 (ip), vehicle: saline, higher = larger tumour) 71 % of control; (endpoint: mean tumor weight, dose: 25.0 mg/kg/injection, schedule: Q01DX010 (ip), vehicle: saline, higher = larger tumour) 96 % of control; (endpoint: mean tumor weight, dose: 50.0 mg/kg/injection, schedule: Q01DX010 (ip), vehicle: saline, higher = larger tumour) 71 % of control; (endpoint: mean tumor weight, dose: 50.0 mg/kg/injection, schedule: Q01DX011 (ip), vehicle: saline, higher = larger tumour) 82 % of control; under setting [5], 80 % of control.

As to `Nc1cc2nc3ccccc3sc-2cc1=O`, the T/C by setting is: (endpoint: median survival time, dose: 50.0 mg/kg/injection, schedule: Q01DX009 (ip), vehicle: saline with Tween-80, higher = longer survival) 104 % of control; (endpoint: median survival time, dose: 100.0 mg/kg/injection, schedule: Q01DX009 (ip), vehicle: saline with Tween-80, higher = longer survival) 90 % of control.

As for `CC(C)=CCC(OC(=O)C=C(C)C)C1=CC(=O)c2c(O)ccc(O)c2C1=O` (configuration not stated), the T/C by setting is: under setting [1], 104 % of control; under setting [2], 88 % of control; under setting [3], 118 % of control.

As to `CCCCSc1nc(N)nc2c1ncn2CC(C)CC` (configuration not stated), the T/C runs as follows: (endpoint: mean tumor weight, dose: 75.0 mg/kg/injection, schedule: Q01DX011 (ip), vehicle: other, higher = larger tumour) 103 % of control; (endpoint: mean tumor weight, dose: 150.0 mg/kg/injection, schedule: Q01DX011 (ip), vehicle: other, higher = larger tumour) 50 % of control; under setting [8], 53 % of control.

For the molecule `Nc1ccc(OC(=O)Oc2ccc(N)cc2)cc1`, the T/C by setting is: (endpoint: mean tumor weight, dose: 31.3 mg/kg/injection, schedule: Q01DX011 (ip), vehicle: saline, higher = larger tumour) 60 % of control; (endpoint: mean tumor weight, dose: 62.5 mg/kg/injection, schedule: Q01DX011 (ip), vehicle: saline, higher = larger tumour) 79 % of control; under setting [6], 49 % of control; under setting [7], 18 % of control.

Consider `O=C(CCCN1CCC(O)(c2cccc(C(F)(F)F)c2)CC1)c1ccc(F)cc1`, for which the T/C by setting is: (endpoint: median survival time, dose: 25.0 mg/kg/injection, schedule: Q04DX003 (ip), vehicle: saline with Tween-80, higher = longer survival) 92 % of control; (endpoint: median survival time, dose: 50.0 mg/kg/injection, schedule: Q04DX003 (ip), vehicle: saline with Tween-80, higher = longer survival) 121 % of control.

Turning to `O=C(NO)c1ccccc1O`, the T/C is 109 % of control (endpoint: median survival time, dose: 6.25 mg/kg/injection, schedule: Q01DX009 (ip), vehicle: saline, higher = longer survival); 106 % of control (endpoint: median survival time, dose: 12.5 mg/kg/injection, schedule: Q01DX009 (ip), vehicle: saline, higher = longer survival); 108 % of control (endpoint: median survival time, dose: 25.0 mg/kg/injection, schedule: Q01DX009 (ip), vehicle: saline, higher = longer survival); 103 % of control (endpoint: median survival time, dose: 50.0 mg/kg/injection, schedule: Q01DX009 (ip), vehicle: saline, higher = longer survival); 113 % of control (endpoint: median survival time, dose: 400.0 mg/kg/injection, schedule: Q01DX009 (ip), vehicle: saline with Tween-80, higher = longer survival).

With `NC1=NC(=S)C2N=C(N=Nc3ccc(C(=O)NC(CCC(=O)O)C(=O)O)cc3)N=C2N1` (configuration not stated), the T/C runs as follows: (endpoint: median survival time, dose: 0.2 mg/kg/injection, schedule: Q01DX009 (ip), vehicle: Klucel (hydroxypropylcellulose) (HPC), higher = longer survival) 97 % of control; (endpoint: median survival time, dose: 0.4 mg/kg/injection, schedule: Q01DX009 (ip), vehicle: Klucel (hydroxypropylcellulose) (HPC), higher = longer survival) 93 % of control; (endpoint: median survival time, dose: 0.78 mg/kg/injection, schedule: Q01DX009 (ip), vehicle: Klucel (hydroxypropylcellulose) (HPC), higher = longer survival) 110 % of control.

On to `CCCCn1cnc2c(SC)nc(N)nc21`, for which the T/C is, setting by setting: (endpoint: mean tumor weight, dose: 30.0 mg/kg/injection, schedule: Q01DX011 (ip), vehicle: other, higher = larger tumour) 79 % of control; (endpoint: mean tumor weight, dose: 60.0 mg/kg/injection, schedule: Q01DX011 (ip), vehicle: other, higher = larger tumour) 103 % of control; (endpoint: mean tumor weight, dose: 120.0 mg/kg/injection, schedule: Q01DX011 (ip), vehicle: other, higher = larger tumour) 124 % of control.

With `O=C(O)C1CCCCN1` (configuration not stated), the T/C (endpoint: mean tumor weight, dose: 133.0 mg/kg/injection, schedule: Q01DX011 (ip), vehicle: other, higher = larger tumour) is 110 % of control; the T/C under setting [8] is 123 % of control; the T/C (endpoint: mean tumor weight, dose: 450.0 mg/kg/injection, schedule: Q01DX011 (ip), vehicle: other, higher = larger tumour) was 116 % of control.

On to `C=C(C)[C@H]1Cc2c(ccc3c2O[C@@H]2COc4cc(OC)c(OC)cc4[C@@H]2C3=O)O1`, for which the T/C under setting [4] is 76 % of control; the T/C (endpoint: mean tumor weight, dose: 0.5 mg/kg/injection, schedule: Q01DX011 (ip), vehicle: water, higher = larger tumour) was 65 % of control; the T/C (endpoint: mean tumor weight, dose: 1.0 mg/kg/injection, schedule: Q01DX011 (ip), vehicle: water, higher = larger tumour) is 60 % of control.
